Drawing on patent US20200138827A1, “SMALL MOLECULE MODULATORS OF HUMAN STING” (Curadev Pharma Limited, priority 2017, published 2020), this text covers EC50 for seven molecules.

In one assay the target is T1, WT/R232 STING protein (Homo sapiens, UniProt Q86WV6, H232R).
T1 construct: host or cells: HEK293T
Briefly: Luciferase reporter assay in HEK293T-hSTING-Luciferase cells, WT/R232. The following applies: 20 hr stimulation, read-out: R232 Activity (EC50 range). It counts as cell-based. The procedure, abridged:
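[…], read by luminescence from supernatant after 20 h compound stimulation. Cells: clonally selected HEK293T (5×10^5/well) stably carrying WT/R232 human STING and a luciferase reporter under five tandem ISREs fused to an ISG54 minimal promoter.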

The next assay addresses T2, hSTING(H232) (Homo sapiens, UniProt Q86WV6).
T2 construct: host or cells: HEK293T
As to the kind of experiment: Luciferase reporter assay in HEK293T-hSTING-Luciferase cells, H232 polymorph. It counts as cell-based. The following applies: 20 hr stimulation, read-out: H232 activity (EC50 range). The procedure, abridged: (§1)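 HEK293T clones stably expressed the given human STING variant plus luciferase under an ISRE/ISG54 IRF-inducible promoter. 5×10^5 cells were stimulated with compound for 20 hr, and secreted luciferase in the supernatant was measured by Quanti-Luc luminescence.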

Another assay has as its target T3, hSTING(HAQ) (Homo sapiens, UniProt Q86WV6, G230A/H232R/R293Q/R71H).
T3 construct: host or cells: HEK293T
Briefly: Luciferase reporter assay in HEK293T-hSTING-Luciferase cells, HAQ polymorph. The format is cell-based. To be noted: 20 hr stimulation, read-out: HAQ activity (EC50 range). A digest of the protocol:
as §1

Another assay concerns IRF pathway. Briefly: Reporter gene expression assay in THP1-Dual cells, IRF axis (secreted Lucia luciferase). To be noted: Homo sapiens, THP1-Dual, read-out: THP-IRF activity (EC50 range). It counts as cell-based, human. The procedure, abridged: (§2)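 THP-1-derived cells carrying inducible NF-κB-SEAP and IRF-Lucia reporters, seeded at 5×10^5 and stimulated with compounds. After […], supernatant SEAP read with QUANTI-Blue and Lucia luciferase with QUANTI-Luc.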

For a further assay, the system named is NF-κB pathway. Briefly: Reporter gene expression assay in THP1-Dual cells, NFkB axis (secreted SEAP). The following applies: Homo sapiens, THP1-Dual, read-out: THP-NFKB activity (EC50 range). It counts as cell-based, human. The procedure, abridged:
as §2

T2 sequence (Q86WV6 whole entry): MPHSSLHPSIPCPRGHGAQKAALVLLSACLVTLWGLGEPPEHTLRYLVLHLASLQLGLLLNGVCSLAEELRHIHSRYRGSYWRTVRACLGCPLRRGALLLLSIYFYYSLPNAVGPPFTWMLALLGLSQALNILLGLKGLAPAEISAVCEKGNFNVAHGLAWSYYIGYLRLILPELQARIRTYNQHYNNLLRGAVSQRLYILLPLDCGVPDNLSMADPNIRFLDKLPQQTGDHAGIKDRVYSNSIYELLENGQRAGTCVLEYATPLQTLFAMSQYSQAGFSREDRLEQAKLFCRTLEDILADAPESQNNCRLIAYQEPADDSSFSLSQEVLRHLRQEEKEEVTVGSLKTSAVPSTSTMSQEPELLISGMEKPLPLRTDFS
T1 sequence (Q86WV6 whole entry H232R): as the sequence (Q86WV6 whole entry) above, with H232R counted along it
T3 sequence (Q86WV6 whole entry R71H/G230A/H232R/R293Q): as the sequence (Q86WV6 whole entry) above, with R71H, G230A, H232R, R293Q counted along it

For the molecule `CC1(C)Sc2ccc(C(=O)NCc3cc4ccccc4o3)cc2N(Cc2ccccc2F)C1=O` [Example 161, N-(benzofuran-2-ylmethyl)-4-(2-fluorobenzyl)-2,2-dimethyl-3-oxo-3,4-dihydro-2H-benzo[b][1,4] thiazine-6-carboxamide], the EC50 at WT/R232 STING protein is 1 to 10 µM; on hSTING(H232), > 10 µM; at hSTING(HAQ) it was 1 to 10 µM; in the assay on IRF pathway it was > 10 µM; in the assay on NF-κB pathway, > 10 µM.
Turning to `CC1Sc2ccc(C(=O)NCc3c(F)cc(F)cc3F)cc2N(Cc2cccc(C(N)=O)c2)C1=O` (centres unmarked) [Example 160, 4-(3-carbamoylbenzyl)-2-methyl-3-oxo-N-(2,4,6-trifluorobenzyl)-3,4-dihydro-2H-benzo[b][1,4] thiazine-6-carboxamide], the EC50 at WT/R232 STING protein is < 1 µM; at hSTING(H232), > 10 µM; on hSTING(HAQ), > 10 µM; with IRF pathway, > 10 µM; in the assay with NF-κB pathway it was > 10 µM.
`O=C(NCc1cc2ccccc2o1)c1ccc2c(c1)N(Cc1c(F)cccc1Cl)C(=O)CS2` [Example 40, N-(benzofuran-2-ylmethyl)-4-(2-chloro-6-fluorobenzyl)-3-oxo-3,4-dihydro-2H-benzo[b-1,4]thiazine-6-carboxamide]: the EC50 at WT/R232 STING protein was < 1 µM; at hSTING(H232), 1 to 10 µM; at hSTING(HAQ), 1 to 10 µM; in the assay on IRF pathway, 1 to 10 µM; in the assay on NF-κB pathway, 1 to 10 µM.
On to `Cc1cccc(CNC(=O)c2ccc3c(c2)N(Cc2c(F)cccc2Cl)C(=O)CS3)c1` [Example 37, 4-(2-chloro-6-fluorobenzyl)-N-(3-methylbenzyl)-3-oxo-3,4-dihydro-2H-benzo[b-1,4]thiazine-6-carboxamide], for which the half-maximal effective concentration (EC50) is < 1 µM at WT/R232 STING protein; 1 to 10 µM on hSTING(H232); > 10 µM at hSTING(HAQ); > 10 µM in the assay on IRF pathway; > 10 µM in the assay on NF-κB pathway.
Consider `CC1(C)Sc2ccc(C(=O)NCc3c(F)cc(F)cc3F)cc2N(Cc2ccccc2F)C1=O` [Example 218, 4-(2-fluorobenzyl)-2,2-dimethyl-3-oxo-N-(2,4,6-trifluorobenzyl)-3,4-dihydro-2H-benzo[b][1,4] thiazine-6-carboxamide], for which the EC50 is < 1 µM at WT/R232 STING protein; 1 to 10 µM on hSTING(H232); 1 to 10 µM at hSTING(HAQ); 1 to 10 µM in the assay with IRF pathway; 1 to 10 µM with NF-κB pathway.
With `O=C(NCc1ccco1)c1ccc2c(c1)N(Cc1c(F)cccc1Cl)C(=O)CS2` [Example 131, 4-(2-chloro-6-fluorobenzyl)-N-(furan-2-ylmethyl)-3-oxo-3,4-dihydro-2H-benzo[b][1,4]thiazine-6-carboxamide], the EC50 was 1 to 10 µM at WT/R232 STING protein; 1 to 10 µM at hSTING(H232); > 10 µM on hSTING(HAQ); > 10 µM in the assay with IRF pathway; > 10 µM with NF-κB pathway.
With `CC1Oc2ccc(C(=O)NCc3c(F)cc(F)cc3F)cc2N(Cc2cc(F)cc(F)c2)C1=O` (centres unmarked) [Example 232, 2-Methyl-4-(3,5-difluorobenzvyl)-3-oxo-N-(2,4,6-trifluorobenzyl)-3,4-dihydro-2H-1,4-benzoxazine-6-carboxamide], the EC50 at WT/R232 STING protein is < 1 µM; at hSTING(H232), 1 to 10 µM; on hSTING(HAQ), 1 to 10 µM; in the assay on IRF pathway it was > 10 µM; with NF-κB pathway, > 10 µM.
